Measured values from patent US20150216136A1, “PLANT REGENERATION FROM PROTOPLASTS DERIVED FROM ELAEIS sp SUSPENSION CULTURES” (MALAYSIAN PALM OIL BOARD, priority 2012, published 2015).

Legend:
Format in all cases: cell-based, Elaeis guineensis
oil palm protoplasts [1] = assay: Plant growth regulators (PGRs) optimization on agarose solidified cultures; conditions: within PGR combinations, Y3A or Y3D media
Procedure: The PGRs optimization was performed on agarose solidified cultures. All PGRs used were prepared at the concentration of 1 μM/μl and the pH was adjusted to 5.7. The filter-sterilized PGRs were added in 24 wells culture plate at different combinations and concentration as indicated in Table 3.
Protoplast division frequency was calculated by counting the number of protoplasts divided by the total number of protoplasts in one representative microscope field. Three microscopic fields were averaged to represent one experiment in which the experiment was performed in 3 replicates to give an average range of protoplast division frequency. A similar calculation procedure was used for microcolonies and microcalli formation frequencies.

microcalli = assay: Control of callus browning in agarose bead culture; conditions: additive in Y35N5D2iP liquid media surrounding agarose beads; AA 200 mg/l
Procedure: The mixture of protoplasts and agarose was prepared by using the same procedure for preparation of agarose solidified cultures with the exception that the protoplast pellet was resuspended in […] liquid media supplemented with the optimum PGRs and 0.6% w/v agarose sea plaque. Agarose beads were prepared by dropping 200 μl of the mixture into a 60 mm×15 mm petri dish. After agarose solidification, 10 ml of 21% v/v osmoticum solution was added to Petri dish and incubated at 28° C. in the dark for 3-5 days. Three types of osmoticum solutions were used: sucrose, glucose and mannitol. Each was dissolved in water, adjusting the pH to 5.7 and then filter-sterilized. The osmoticum solution was replaced with different liquid media in shaking condition at 50 rpm by refreshing the media at 14-day intervals. When the formation of microcolonies was observed, […] liquid media was changed to Y3 liquid media and the agarose beads were cultured until the microcalli were detected. […] The cultures were continued until the microcalli growth to embryogenic calli.

oil palm protoplasts [2] = assay: DNA microinjection mediated transformation of alginate layer-embedded protoplasts; conditions: in injected protoplasts at 28° C.
Procedure: Protoplasts were isolated from a 7 day subculture of a 3 month old embryogenic suspension culture as described above. After twice repeating the washing step, the supernatant was mostly removed leaving 3 ml Washing solution. The centrifuge tube containing the protoplast suspension was incubated in a vertical position in the dark for 24 hours at 28° C. After incubation, the protoplast suspension was diluted by 10 ml of Rinse solution and resuspended by inverting the centrifuge tube for 3-5 times, and then centrifuged at 60×g for 5 minutes at 22° C. After repeating the rinsing step, the supernatant was removed completely and the protoplast pellet was embedded with 3 ml filter-sterilized ([…]) alginate solution consisted of 1% w/v alginic acid sodium salt (A2158, Sigma) dissolved in Y3A liquid media (5.5% w/v sucrose and 11.9% w/v glucose supplemented with 10 μM NAA, 2 μM 2.4-D, 2 μM IBA, 2 μM GA3, 2 μM 2iP and 200 mg/L ascorbic acid) adjusted to pH 5.6, in which the Y3 macroelements was prepared without calcium chloride (CaCl2.2H2O).
Alginate-embedded protoplasts were distributed as a thin layer onto supporting media comprising, 1.5 mL filter-sterilized Y3A (5.5% w/v sucrose and 11.9% w/v glucose supplemented with 0.1% w/v CaCl2.2H2O) solidified with 1% w/v agarose sea plaque, in 35 mm×10 mm petri dish (no. 627161, Greiner Bio-One, Germany). […]

**Q.** Which “Cell division at concentration higher than 7 μM” value (shortened to “Cell division”) (oil palm protoplasts [1]) does the source give for O=C(O)COc1ccc(Cl)cc1Cl [2,4-D, 2,4-Dichlorophenoxyacetic acid] here?
**A.** Its value is “inhibited cell division”.

**Q.** For CC(C)=CCNc1ncnc2nc[nH]c12 [2iP, 2-γ-Dimethylallylaminopurine], which “Cell division” value (oil palm protoplasts [1]) is on record?
**A.** The value was “inhibited cell division”.

**Q.** For O=C1O[C@H]([C@@H](O)CO)C(O)=C1O [AA, Ascorbic acid], which “Microcalli browning / development of embryogenic callus” value (microcalli) is on record?
**A.** Its value is “developed embryogenic callus”.

**Q.** O=[N+]([O-])[O-].[Ag+] [AgNO3, Silver nitrate] was tested. Which “Microcalli browning / development of embryogenic callus” value (microcalli) did it give?
**A.** The value was “did not solve the problem of browning”.

**Q.** With C=C1C[C@]23C[C@@]1(O)CC[C@H]2[C@@]12C=C[C@H](O)[C@@](C)(C(=O)O1)[C@H]2[C@@H]3C(=O)O [GA3, Gibberellic acid A3] as the compound, how does the “Cell division” value (oil palm protoplasts [1]) read?
**A.** Its value is “inhibited cell division”.

**Q.** With O=C(O)CCCc1c[nH]c2ccccc12 [IBA, Indole-3-butyric acid] as the compound, how does the “Cell division” value (oil palm protoplasts [1]) read?
**A.** The value was “inhibited cell division”.

**Q.** Lucifer Yellow CH dilithium salt was tested. Which “Time the fluorescence property is maintained” value (oil palm protoplasts [2]) did it give?
**A.** The value was 48 h.
